“And” between values parts separate entries of the source, which are not always exact repeats. Identical values can stand only once. Toxic doses and inconclusive results are not listed. The calls were made as follows: active = survival T/C of 150% or more; inactive = T/C below 125% in these data.
Tested on: P388 leukemia ip, CD2F1 mice, survival T/C
Experiment: NCI In Vivo Anticancer Drug Screen. Data for tumor model P388 Leukemia (intraperitoneal) in CD2F1 (CDF1) mice
Conditions: endpoint: median survival time, higher = longer survival
How it was run: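 Mice carrying the transplanted tumor received test compound or vehicle. Survival was recorded in each group, and the value is the treated-group measurement divided by that of the vehicle-treated control group.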

[1] = dose: 50.0 mg/kg/injection, schedule: Q01DX005 (ip), vehicle: saline with Tween-80
[2] = dose: 100.0 mg/kg/injection, schedule: Q01DX005 (ip), vehicle: saline with Tween-80
[3] = dose: 200.0 mg/kg/injection, schedule: Q01DX005 (ip), vehicle: saline with Tween-80
[4] = dose: 50.0 mg/kg/injection, schedule: Q01DX005 (ip), vehicle: Klucel (hydroxypropylcellulose) (HPC)
[5] = dose: 100.0 mg/kg/injection, schedule: Q01DX005 (ip), vehicle: Klucel (hydroxypropylcellulose) (HPC)
[6] = dose: 25.0 mg/kg/injection, schedule: Q01DX009 (ip), vehicle: saline with Tween-80
[7] = dose: 200.0 mg/kg/injection, schedule: Q01DX005 (ip), vehicle: Klucel (hydroxypropylcellulose) (HPC)
[8] = dose: 50.0 mg/kg/injection, schedule: Q01DX009 (ip), vehicle: saline
[9] = dose: 100.0 mg/kg/injection, schedule: Q01DX009 (ip), vehicle: saline
[10] = dose: 50.0 mg/kg/injection, schedule: Q01DX009 (ip), vehicle: Klucel (hydroxypropylcellulose) (HPC)
[11] = dose: 100.0 mg/kg/injection, schedule: Q01DX009 (ip), vehicle: Klucel (hydroxypropylcellulose) (HPC)
[12] = dose: 200.0 mg/kg/injection, schedule: Q01DX009 (ip), vehicle: Klucel (hydroxypropylcellulose) (HPC)
[13] = dose: 100.0 mg/kg/injection, schedule: Q04DX002 (ip), vehicle: saline with Tween-80
[14] = dose: 200.0 mg/kg/injection, schedule: Q04DX002 (ip), vehicle: saline with Tween-80

Measured: T/C

O=C1C=CC(=O)N1C(=O)NC(NC(=O)N1C(=O)C=CC1=O)c1ccc2c(c1)OCO2
inactive: dose: 25.0 mg/kg/injection, schedule: Q01DX005 (ip), vehicle: saline with Tween-80 102 % of control | [1] 98 % of control | [2] 95 % of control | [3] 102 % of control

CC(C)(C)N1C(=O)C(c2ccccc2)(c2ccccc2)C1/C=C/c1ccccc1 (stereo unspecified)
inactive: [4] 93 % of control | [5] 90 % of control

NN1C(=O)c2cccc3cccc(c23)C1=O
inactive: dose: 3.13 mg/kg/injection, schedule: Q01DX009 (ip), vehicle: saline with Tween-80 105 % of control | dose: 6.25 mg/kg/injection, schedule: Q01DX009 (ip), vehicle: saline with Tween-80 100 % of control | dose: 12.5 mg/kg/injection, schedule: Q01DX009 (ip), vehicle: saline with Tween-80 100 % of control | [6] 105 % of control

O=C1CSC(c2c(F)cccc2Cl)N1c1ncccn1 (stereo unspecified)
inactive: dose: 60.0 mg/kg/injection, schedule: Q01DX005 (ip), vehicle: Klucel (hydroxypropylcellulose) (HPC) 109 % of control | dose: 120.0 mg/kg/injection, schedule: Q01DX005 (ip), vehicle: Klucel (hydroxypropylcellulose) (HPC) 111 % of control

Cc1ccc(C(=O)CSCC(=O)c2ccc(C)cc2)cc1
inactive: [4] 87 % of control | [5] 86 % of control | [7] 94 % of control

C=C[CH2][Sn]([c]1ccccc1)([c]1ccccc1)[c]1ccccc1
inactive: dose: 6.25 mg/kg/injection, schedule: Q04DX003 (ip), vehicle: saline with Tween-80 92 % of control | dose: 12.5 mg/kg/injection, schedule: Q04DX003 (ip), vehicle: saline with Tween-80 100 % of control | dose: 25.0 mg/kg/injection, schedule: Q04DX003 (ip), vehicle: saline with Tween-80 101 % of control

CCN(CC)C1CS(=O)(=O)OC2=C1CSCC2 (stereo unspecified)
inactive: dose: 100.0 mg/kg/injection, schedule: Q04DX003 (ip), vehicle: saline with Tween-80 102 % of control | dose: 200.0 mg/kg/injection, schedule: Q04DX003 (ip), vehicle: saline with Tween-80 100 % of control | dose: 400.0 mg/kg/injection, schedule: Q04DX003 (ip), vehicle: saline with Tween-80 95 % of control

CCCSCCSCCC
inactive: [6] 91 % of control | dose: 50.0 mg/kg/injection, schedule: Q01DX009 (ip), vehicle: saline with Tween-80 100 % of control | dose: 100.0 mg/kg/injection, schedule: Q01DX009 (ip), vehicle: saline with Tween-80 95 % of control

CCC1(/C=N/NC(N)=S)NC(=O)NC1=O (stereo unspecified)
inactive: [1] 93 % of control | [2] 89 % of control | [3] 94 % of control

CN(C)C(=C[N+](=O)[O-])N(C)C
inactive: [8] 101 % of control | [9] 103 % of control | dose: 200.0 mg/kg/injection, schedule: Q01DX009 (ip), vehicle: saline 104 % of control

C=C(Cl)C[N+]12CN3CN(CN(C3)C1)C2
inactive: dose: 12.5 mg/kg/injection, schedule: Q01DX009 (ip), vehicle: saline 100 % of control | dose: 25.0 mg/kg/injection, schedule: Q01DX009 (ip), vehicle: saline 96 % of control | [8] 105 % of control | [9] 107 % of control

CC1(c2ccccc2)OC1(C)c1ccccc1 (stereo unspecified)
inactive: [10] 103 % of control | [11] 103 % of control | [12] 103 % of control

CNC(=O)OCc1c(COC(=O)NC)c2n(c1C)-c1ccc(OC)cc1CCC2
inactive: dose: 7.5 mg/kg/injection, schedule: Q01DX005 (ip), vehicle: Klucel (hydroxypropylcellulose) (HPC) 119 % of control | dose: 15.0 mg/kg/injection, schedule: Q01DX005 (ip), vehicle: Klucel (hydroxypropylcellulose) (HPC) 122 % of control

CC1=CC(=O)C2OC2C1=O (stereo unspecified)
inactive: dose: 5.0 mg/kg/injection, schedule: Q04DX002 (ip), vehicle: saline with Tween-80 101 % of control

CCN(CC)Cc1cc(C)c(O)c(N=Nc2cccc3ccccc23)c1C
inactive: [13] 86 % of control | [14] 91 % of control | dose: 400.0 mg/kg/injection, schedule: Q04DX002 (ip), vehicle: saline with Tween-80 109 % of control

C=CC(=O)P(=O)(OCC)OCC
inactive: dose: 100.0 mg/kg/injection, schedule: Q04DX002 (ip), vehicle: saline 107 % of control | dose: 200.0 mg/kg/injection, schedule: Q04DX002 (ip), vehicle: saline 103 % of control | dose: 400.0 mg/kg/injection, schedule: Q04DX002 (ip), vehicle: saline 98 % of control

O=C1CCC2(CC1)CCc1ccccc1C2=O
inactive: dose: 100.0 mg/kg/injection, schedule: Q01DX001 (ip), vehicle: saline with Tween-80 103 % of control | dose: 200.0 mg/kg/injection, schedule: Q01DX001 (ip), vehicle: saline with Tween-80 97 % of control | dose: 400.0 mg/kg/injection, schedule: Q01DX001 (ip), vehicle: saline with Tween-80 103 % of control

CCCCCCCCCCC/C=C/[N+](=O)[O-]
inactive: dose: 5.0 mg/kg/injection, schedule: Q01DX005 (ip), vehicle: Klucel (hydroxypropylcellulose) (HPC) 101 % of control | dose: 10.0 mg/kg/injection, schedule: Q01DX005 (ip), vehicle: Klucel (hydroxypropylcellulose) (HPC) 99 % of control | dose: 20.0 mg/kg/injection, schedule: Q01DX005 (ip), vehicle: Klucel (hydroxypropylcellulose) (HPC) 104 % of control | dose: 40.0 mg/kg/injection, schedule: Q01DX005 (ip), vehicle: Klucel (hydroxypropylcellulose) (HPC) 99 % of control

CCn1c(=O)c2[nH]c(Br)nc2n(CC)c1=O
inactive: dose: 12.5 mg/kg/injection, schedule: Q01DX009 (ip), vehicle: Klucel (hydroxypropylcellulose) (HPC) 124 % of control | dose: 16.0 mg/kg/injection, schedule: Q01DX009 (ip), vehicle: Klucel (hydroxypropylcellulose) (HPC) 106 % of control | dose: 25.0 mg/kg/injection, schedule: Q01DX009 (ip), vehicle: Klucel (hydroxypropylcellulose) (HPC) 103 % of control and 97 % of control | dose: 32.0 mg/kg/injection, schedule: Q01DX009 (ip), vehicle: Klucel (hydroxypropylcellulose) (HPC) 104 % of control | [10] 105 % of control and 95 % of control | dose: 64.0 mg/kg/injection, schedule: Q01DX009 (ip), vehicle: Klucel (hydroxypropylcellulose) (HPC) 114 % of control | [11] 98 % of control and 103 % of control

S=C(S)N1CCCC1
inactive: [8] 100 % of control | [9] 93 % of control

O=C(CSC(c1ccccc1)(c1ccccc1)c1ccccc1)c1ccc([N+](=O)[O-])cc1
inactive: [4] 100 % of control | [5] 105 % of control | [7] 95 % of control

Cc1ccc(NC(=O)Nc2nc3ccccc3s2)cc1NC(=O)Nc1nc2ccccc2s1
inactive: [10] 110 % of control | [11] 102 % of control | [12] 109 % of control

c1ccc(CSCCSCc2ccccn2)nc1
inactive: [4] 95 % of control | [5] 109 % of control | [7] 103 % of control

CCN=C(C1=C(O)c2ccccc2C1=O)c1ccccc1
inactive: dose: 50.0 mg/kg/injection, schedule: Q04DX002 (ip), vehicle: saline with Tween-80 94 % of control | [13] 119 % of control | [14] 111 % of control

S=C(S)n1nc(-c2ccccc2)c(N=Nc2ccc(Cl)cc2Cl)c1-c1ccccc1
inactive: [1] 94 % of control | [2] 89 % of control | [3] 89 % of control

COc1ccc(/C=C/C(=O)c2ccccc(=O)c2O)c(OC)c1
inactive: dose: 25.0 mg/kg/injection, schedule: Q01DX005 (ip), vehicle: Klucel (hydroxypropylcellulose) (HPC) 101 % of control | [4] 98 % of control | [5] 105 % of control | [7] 104 % of control
